In series [1] the test system is AR-V7 in 22Rv1 PC cells. The series is described as follows: AR-V7 protein (WB) and mRNA (qPCR) levels in 22Rv1 PC cells. The series is classed as cell-based. Conditions: 2,4-PDCA for 48 hours. How it is done:
(§1) All cell lines were purchased from LGC Standards/ATCC unless otherwise specified and grown in recommended media at 37° C. in 5% CO2. Short tandem repeat profiling was performed using the Cell Authentication Service by Eurofins Medigenomix to ensure the quality and integrity of the cell lines used. Cells lines were tested for mycoplasma after thawing, then regularly every 6-8 weeks during culture using the Venor®GeM Advance Mycoplasma Detection Kit (Minerva Biolabs). Early passages were thawed every 3-months (after approximately 15-20 passages). Small interfering RNA (siRNA): All siRNAs were ONTARGETplus pools (Dharmacon; GE heathcare), and used in combination with 0.4% RNAiMax transfection reagent (ThermoFisher Scientific) as per manufacturer's instructions. siRNA experiments were performed at 50 nM, unless otherwise specified, for 72-hours. […]
(§2) 0.45 μm pore size (Millipore). […] Chemiluminescence was then detected using the Chemidoc Touch imaging system (BioRad). Quantitative Reverse Transcription Polymerase Chain Reaction (qRT-PCR)
(§3) The RNeasy Plus Mini kit (Qiagen) was used to extract cellular RNA as per manufacturer's instructions. […] The fold change in mRNA expression levels was calculated by the comparative Ct method, using the formula 2-(-(ΔΔCt).

The target of series [2] is T1, JMJD6 (1-362) (Homo sapiens, UniProt Q6NYC1).
T1 construct: by JMJD6 (1-362, prepared as reported); made in house
Nature of the series: LC-MS assay for JMJD6 inhibition (hydroxylation of LUC7L2 peptide substrate). The format is biochemical. Also on record: dose or concentration left out as unconfirmed. Conditions: 8-point 3-fold serial dilution of 2,4-PDCA, 2 hours at 37° C. The text has this: Liquid Chromatography Mass Spectrometry (LC-MS) assays for JMJD6 inhibition by 2,4-PDCA Hydroxylation of a 12-mer peptide substrate (NPKRSRSREHRR, prepared with a C-terminal amide) of the LUC7L2 pre-mRNA splicing factor by JMJD6 (1-362, prepared as reported) was monitored by liquid chromatography mass spectrometry (LC-MS) using an Agilent 1290 infinity II LC system equipped with an Agilent 1290 infinity binary pump and coupled to an Agilent 6550 Accurate Mass Quadrupole Time of Flight (Q-TOF) mass spectrometer. Note this construct has hydroxylation but not demethylation activity. All JMJD61-362 enzyme reactions were performed in 50 mM Tris.Cl pH 7.5 (prepared fresh each day) at 37° C. […] Peptide ionization was monitored in the positive ion electrospray ionisation (ESI) mode with a drying gas temperature of 280° C., a drying gas flow rate of 13 L/minute, nebulizer gas pressure of 40 PSI, sheath gas temperature of 350° C., sheath gas flow rate of 12 L/min and a nozzle voltage of 1000V. […] The % conversion of the peptide substrate to the +16 hydroxylated peptide was calculated using the equation: % conversion=100×hydroxylated/(hydroxylated+non-hydroxylated peptide). The IC50 for 2,4-PDCA was determined from non-linear regression curve fitting using GraphPad prism 6.0.

For series [3] the following is noted: at least in some cell types; cited from earlier work.
The test system of series [4] is JMJD6 protein in LNCaP95 cells. Nature of the series: WB of JMJD6 protein in LNCaP95 cells treated with I-BET151. The format is cell-based. As to conditions: I-BET151 for 48 hours. As for the experimental part: Subsequent to cell lysis with RIPA buffer (Pierce) supplemented with cOmplete™ EDTA-free Protease Inhibitor Cocktail (Roche), protein extracts (20 μg) were separated by electrophoresis on 4-12% NuPAGE® Bis-Tris gel plates (Invitrogen) prior to transfer onto Immobilon-P™ PVDF membranes of 0.45 μm pore size (Millipore). Membranes were then incubated sequentially with primary and then secondary antibody in 5% milk and tris-buffered saline (TBS) and Tween®20 (Sigma Aldrich). Chemiluminescence was then detected using the Chemidoc Touch imaging system (BioRad). Quantitative Reverse Transcription Polymerase Chain Reaction (qRT-PCR)

Series [5] deals with AR-V7 in LNCaP95 PC cells. The series is described as follows: AR-V7 protein (WB) and mRNA (qPCR) levels in LNCaP95 PC cells. The series is classed as cell-based. Conditions: I-BET151 for 48 hours. As for the experimental part:
as §1, §2, §3
Background: In qPCR the cycle at which signal appears reflects the starting amount.

Series [6] has as its system VCaP PC cells. Nature of the series: CellTiter-Glo Luminescent Cell Viability Assay, VCaP. The series is classed as cell-based. As to conditions: siRNA 25 nM; Enzalutamide; after 5-days; vs control siRNA + DMSO 0.1%. How it is done:
Cells were plated in 48-well tissue culture plates and treated as indicated the following day, then grown for 6-days or until 80-90% confluence. To quantify growth of LNCaP, LNCaP95, 22Rv1 and PNT2 cell lines, cells were fixed with 10% (w/v) aqueous trichloroacetic acid and incubated at 4° C. for 30-minutes prior to washing and air-drying. Subsequently cells were stained with sulforhodamine B (SRB) for 30-minutes prior to excess dye removal with 1% (v/v) aqueous acetic acid and further air-drying. Following this, protein-bound dye was dissolved in 10 mM Tris base solution, transferred to a 96-wellplate, and optical density determined at 510 nm using the Synergy HT microplate reader (BioTek). VCaP cell growth assays were analyzed using CellTiter-Glo® Luminescent Cell Viability Assay (Promega) as per manufacturer instructions, and luminescence quantified using the Synergy HT microplate reader (BioTek).
In general terms: Cellular ATP, detected with luciferase, serves as a proxy for viable cell number.

The subject of series [7] is AR-V7 in VCaP PC cells. The series is described as follows: AR-V7 protein (WB) and mRNA (qPCR) levels in VCaP PC cells. The format is cell-based. Conditions: 72 hour, siRNA 25 nM, Enzalutamide 10 µM. As for the experimental part:
as §1, §2, §3

Series [8] has as its system 12-mer peptide substrate of the LUC7L2 pre-mRNA splicing factor.

In the case of `O=C(O)c1ccnc(C(=O)O)c1` [2,4-PDCA, pyridine-2,4-dicarboxylic acid], in series [1], the AR-V7 protein levels result is reported as “dose-dependent reduction”. In series [2], the “isolated JMJD6-mediated lysyl-5-hydroxylation of LUC7-Like (LUC7L)” value was “dose-dependent reduction”. Moreover, the permeability entry in series [3] is recorded as “low”.

On to `COc1cc2c(cc1-c1c(C)noc1C)ncc1[nH]c(=O)n([C@H](C)c3ccccn3)c12` [I-BET151], for which the JMJD6 protein expression entry in series [4] is listed as “dose-dependent reduction”. The AR-V7 protein expression result in series [5] is listed as “dose-dependent reduction”.

Consider `CNC(=O)c1ccc(N2C(=S)N(c3ccc(C#N)c(C(F)(F)F)c3)C(=O)C2(C)C)cc1F` [enzalutamide], for which, in series [6], the “VCaP PC cell viability” value is recorded as “reduced”. The “AR-V7 protein (WB) levels” value in series [7] is given as “increase significantly”.

Regarding JMJD6 (1-362), in series [8], the “lysyl-5-hydroxylation of the peptide substrate (LC-MS, % conversion to the +16 hydroxylated peptide)” value is 2,4-PDCA caused dose-dependent reduction in isolated JMJD6-mediated lysyl-5-hydroxylation of the known downstream target LUC7-Like (LUC7L).

The values above are taken from US20240115556A1, “A JMJD6 TARGETING AGENT FOR TREATING PROSTATE CANCER” (Cancer Research Technology Limited, priority 2020, published 2024).
